ChEMBL document CHEMBL4354835, “Selective Blockade of Neuronal BK (α + β4) Channels Preventing Epileptic Seizure” (J Med Chem, 2020)
Activity calls are given as the source filed them. The rule behind the calls is not given here.

How the values were obtained:
KCNMA1/KCNMB4 [1] = biological target: T1, KCNMA1/KCNMB4 (Homo sapiens, UniProt Q12791+Q86W47); test: Inhibition of human BK alpha/beta4 channel expressed in HEK293T cells assessed as K+ outward current fraction at 10 uM at -80 mV holding potential by whole cell patch clamp method relative to control; format: cell-based
T1 sequence (Q12791 whole entry, one chain of several, the tested form may be a part): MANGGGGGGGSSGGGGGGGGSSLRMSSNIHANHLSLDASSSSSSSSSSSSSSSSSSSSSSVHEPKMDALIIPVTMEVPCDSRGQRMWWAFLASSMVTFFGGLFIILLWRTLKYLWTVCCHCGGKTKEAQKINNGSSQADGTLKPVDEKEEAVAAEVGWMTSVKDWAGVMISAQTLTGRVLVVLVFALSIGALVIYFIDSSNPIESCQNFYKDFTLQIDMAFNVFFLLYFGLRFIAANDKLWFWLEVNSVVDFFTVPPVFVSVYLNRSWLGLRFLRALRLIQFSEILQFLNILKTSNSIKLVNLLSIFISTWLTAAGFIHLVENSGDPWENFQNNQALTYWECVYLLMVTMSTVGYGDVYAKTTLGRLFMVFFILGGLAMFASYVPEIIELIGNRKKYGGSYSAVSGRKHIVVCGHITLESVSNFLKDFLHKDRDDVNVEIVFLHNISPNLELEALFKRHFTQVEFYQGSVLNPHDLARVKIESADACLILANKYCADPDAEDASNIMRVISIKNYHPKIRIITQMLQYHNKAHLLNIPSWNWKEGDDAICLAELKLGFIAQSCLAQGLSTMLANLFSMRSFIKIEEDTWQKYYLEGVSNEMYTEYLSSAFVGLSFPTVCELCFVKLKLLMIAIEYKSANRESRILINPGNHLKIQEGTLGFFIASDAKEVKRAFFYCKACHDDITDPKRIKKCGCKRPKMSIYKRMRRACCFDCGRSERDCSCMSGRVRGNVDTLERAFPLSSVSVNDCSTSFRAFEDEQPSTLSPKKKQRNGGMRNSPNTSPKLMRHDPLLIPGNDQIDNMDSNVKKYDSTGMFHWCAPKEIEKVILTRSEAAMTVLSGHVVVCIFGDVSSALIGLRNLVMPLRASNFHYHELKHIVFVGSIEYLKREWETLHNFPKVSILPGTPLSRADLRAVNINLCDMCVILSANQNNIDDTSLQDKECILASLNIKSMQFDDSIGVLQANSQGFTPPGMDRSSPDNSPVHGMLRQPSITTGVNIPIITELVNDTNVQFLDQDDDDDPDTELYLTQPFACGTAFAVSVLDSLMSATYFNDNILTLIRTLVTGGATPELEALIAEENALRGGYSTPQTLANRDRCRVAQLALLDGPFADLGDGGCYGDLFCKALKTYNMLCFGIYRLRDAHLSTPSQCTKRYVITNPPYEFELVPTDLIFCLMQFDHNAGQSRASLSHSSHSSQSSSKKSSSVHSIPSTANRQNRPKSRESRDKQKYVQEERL

[2] = biological target: T2, Calcium-activated potassium channel subunit beta-4 (Homo sapiens, UniProt Q86W47); test: Binding affinity to NT-495 fluorophore reagent labelled human BK beta4 (45 to 166 residues) incubated for 30 mins by microscale thermophoresis assay; settings: read-out: Kd
T2 sequence (Q86W47 whole entry): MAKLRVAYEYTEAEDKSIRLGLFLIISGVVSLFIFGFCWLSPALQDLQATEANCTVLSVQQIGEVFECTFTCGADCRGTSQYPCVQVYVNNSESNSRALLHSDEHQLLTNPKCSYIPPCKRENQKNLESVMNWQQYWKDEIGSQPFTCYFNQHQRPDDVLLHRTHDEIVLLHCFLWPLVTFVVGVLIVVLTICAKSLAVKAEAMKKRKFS

[3] = biological target: Calcium-activated potassium channel subunit beta-4 (Homo sapiens, UniProt Q86W47, Q124A); test: Binding affinity to NT-495 fluorophore reagent labelled human BK beta4 Q124A mutant incubated for 30 mins by microscale thermophoresis assay
Sequence of Calcium-activated potassium channel subunit beta-4 (Homo sapiens, UniProt Q86W47, Q124A) (Q86W47 whole entry Q124A): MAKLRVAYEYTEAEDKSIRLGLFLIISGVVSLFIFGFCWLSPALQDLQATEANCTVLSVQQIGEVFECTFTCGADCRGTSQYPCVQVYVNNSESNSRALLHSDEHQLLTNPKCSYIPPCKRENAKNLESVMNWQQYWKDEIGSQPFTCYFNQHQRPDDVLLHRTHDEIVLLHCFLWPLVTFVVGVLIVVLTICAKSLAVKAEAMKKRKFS

Homo sapiens [4] = species: Homo sapiens; test: Inhibition of human BK alpha/human beta4 Q124A mutant expressed in HEK293T cells assessed as K+ fractional outward current at 10 uM at -80 holding potential by whole cell patch clamp technique relative to control; format: cell-based
Homo sapiens [5] = species: Homo sapiens; test: Inhibition of human BK alpha/human beta-4 E128K mutant expressed in HEK293T cells assessed as K+ fractional outward current at 10 uM at -80 mV holding potential by whole cell patch clamp technique relative to control; format: cell-based
[6] = biological target: T3, KCNMA1/KCNMB4 (Rattus norvegicus) (UniProt Q62976+Q9ESK8); test: Inhibition of BK alpha/beta-4 in PTZ-stimulated rat hippocampal pyramidal neurons assessed as longer interval of interspike at -80mV holding potential measured after 10 mins during 300pA current injection by whole cell current clamp assay; format: protein-complex assay
[7] = biological target: T3, KCNMA1/KCNMB4 (Rattus norvegicus); test: Inhibition of BK alpha/beta-4 in rat hippocampal pyramidal neurons assessed as inhibition of PTZ-induced action potential at -80 mV holding potential at 300 pA current injection measured after 10 mins by whole cell current clamp assay
[8] = biological target: T3, KCNMA1/KCNMB4 (Rattus norvegicus); test: Inhibition of BK alpha/beta-4 in PTZ-stimulated rat hippocampal pyramidal neurons assessed as appearance of more action potential failures at -80mV holding potential measured after 10 mins during 300pA current injection by whole cell current clamp assay; format: protein-complex assay
[9] = biological target: T3, KCNMA1/KCNMB4 (Rattus norvegicus); test: Inhibition of BK alpha/beta-4 in PTZ-stimulated rat hippocampal pyramidal neurons assessed as increase in AHP size at 300 pA at -80mV holding potential measured after 10 mins by whole cell current clamp assay; format: protein-complex assay
Rattus norvegicus [10] = species: Rattus norvegicus; test: Anticonvulsant activity against PTZ-induced epileptic seizure Sprague-Dawley rat model assessed as latency time of seizures compound infused into hippocampal region and 10 mins later injected with PTZ and measured for 2 hrs post PTZ-stimulation (reference value: 108.5 +/- 8.63 sec); format: functional
Rattus norvegicus [11] = species: Rattus norvegicus; test: Anticonvulsant activity against PTZ-induced epileptic seizure Sprague-Dawley rat model assessed as duration of seizure compound infused into hippocampal region and 10 mins later injected with PTZ and measured for 2 hrs post PTZ-stimulation (reference value: 376 +/- 76.43 sec); format: functional
Rattus norvegicus [12] = species: Rattus norvegicus; test: Anticonvulsant activity against PTZ-induced epileptic seizures Sprague-Dawley rat model assessed as decrease in number of seizures at high stage (stage 4 and 5) compound infused into hippocampal region and 10 mins later injected with PTZ and measured for 2 hrs post-PTZ stimulation; format: functional, organism-based
Rattus norvegicus [13] = species: Rattus norvegicus; test: Effect on neuronal network in PTZ-induced epileptic seizures Sprague-Dawley rat model assessed as lowered PSD at gamma wave band compound infused into hippocampal region and 10 mins later injected with PTZ and measured after 2 hrs by power spectral density analysis; format: functional, organism-based
Rattus norvegicus [14] = species: Rattus norvegicus; test: Effect on neuronal network in PTZ-induced epileptic seizures Sprague-Dawley rat model assessed as lowered PSD at theta wave band compound infused into hippocampal region and 10 mins later injected with PTZ and measured after 2 hrs by power spectral density analysis; format: functional, organism-based
Rattus norvegicus [15] = species: Rattus norvegicus; test: Effect on neuronal network in PTZ-induced epileptic seizures Sprague-Dawley rat model assessed as lowered PSD at alpha wave band compound infused into hippocampal region and 10 mins later injected with PTZ and measured after 2 hrs by power spectral density analysis; format: functional, organism-based
Rattus norvegicus [16] = species: Rattus norvegicus; test: Effect on neuronal network in PTZ-induced epileptic seizures Sprague-Dawley rat model assessed as lowered PSD at beta wave band compound infused into hippocampal region and 10 mins later injected with PTZ and measured after 2 hrs by power spectral density analysis; format: functional, organism-based
Rattus norvegicus [17] = species: Rattus norvegicus; test: Inhibition of C-Fos expression in PTZ-induced epileptic seizures Sprague-Dawley rat model assessed as inhibition of FLI-positive pyramidal neurons in CA1 region of ipsilateral hippocampus at 10 uM compound infused into hippocampal region and 10 mins later injected with PTZ and measured after 2 hrs by immunohistochemistry; format: functional, organism-based
Rattus norvegicus [18] = species: Rattus norvegicus; test: Inhibition of C-Fos expression in PTZ-induced epileptic seizures Sprague-Dawley rat model assessed as inhibition of FLI-positive pyramidal neurons in CA3 region of ipsilateral hippocampus at 10 uM compound infused into hippocampal region and 10 mins later injected with PTZ and measured after 2 hrs by immunohistochemistry; format: functional, organism-based
Rattus norvegicus [19] = species: Rattus norvegicus; test: Inhibition of C-Fos expression in PTZ-induced epileptic seizures Sprague-Dawley rat model assessed as inhibition of FLI-positive pyramidal neurons in CA3 region of contralateral hippocampus at 10 uM compound infused into hippocampal region and 10 mins later injected with PTZ and measured after 2 hrs by immunohistochemistry; format: functional, organism-based
Rattus norvegicus [20] = species: Rattus norvegicus; test: Neuroprotective activity in PTZ-induced epileptic seizure Sprague-Dawley rat model assessed as inhibition of hippocampal destruction by measuring increase in Nissl stained pyramidal neurons in ipsilateral hippocampus CA3 region compound infused into hippocampal region and 10 mins later injected with PTZ and measured after 3 days by Nissl staining based microscopic analysis; format: functional, organism-based
Rattus norvegicus [21] = species: Rattus norvegicus; test: Neuroprotective activity in PTZ-induced epileptic seizure Sprague-Dawley rat model assessed as inhibition of hippocampal destruction by measuring increase in Nissl stained granular neurons in ipsilateral hippocampus DG region compound infused into hippocampal region and 10 mins later injected with PTZ and measured after 3 days by Nissl staining based microscopic analysis; format: functional, organism-based
KCNMA1/KCNMB4 [22] = biological target: T1, KCNMA1/KCNMB4; test: Inhibition of human BK alpha/beta4 channel expressed in HEK293T cells assessed as inhibition of K+ outward current fraction at -80 mV holding potential by whole cell patch clamp technique; format: cell-based
[23] = biological target: T4, Calcium-activated potassium channel subunit beta-4 (Homo sapiens) (UniProt Q86W47); test: Binding affinity to 15N-labelled human BK beta4 (45 to 166 residues) at compound: protein mole ratio of 1:4 by 1H-15N HSQC NMR spectroscopy
T4 sequence (whole entry): T2 sequence (Q86W47 whole entry)

Homo sapiens [24] = species: Homo sapiens; test: Selectivity ratio of compound Kd for NT-495 fluorophore reagent labelled human BK beta4 Q124A mutant to compound Kd for NT-495 fluorophore reagent labelled human BK beta4 (45 to 166 residues) by microscale thermophoresis assay
Rattus norvegicus [25] = species: Rattus norvegicus; test: Effect on neuronal network in PTZ-induced epileptic seizures Sprague-Dawley rat model assessed as reduced total PSD frequency waves compound infused into hippocampal region and 10 mins later injected with PTZ and measured after 2 hrs by power spectral density analysis; format: functional, organism-based
Rattus norvegicus [26] = species: Rattus norvegicus; test: Inhibition of C-Fos expression in PTZ-induced epileptic seizures Sprague-Dawley rat model assessed as inhibition of FLI-positive granular neurons in DG region of ipsilateral hippocampus at 10 uM compound infused into hippocampal region and 10 mins later injected with PTZ and measured after 2 hrs by immunohistochemistry; format: functional, organism-based

**Q.** With CC[C@H](C)[C@H](NC(=O)[C@H](CC(C)C)NC(=O)CNC(=O)[C@H](Cc1ccccc1)NC(=O)[C@H](CO)NC(=O)CN)C(=O)N[C@@H](CC(=O)O)C(=O)N[C@H](C(=O)N[C@@H](CCCCN)C(=O)N[C@H]1CSSC[C@@H]2NC(=O)[C@H](CCCCN)NC(=O)CNC(=O)[C@H](CCC(N)=O)NC(=O)CNC(=O)[C@H](CO)NC(=O)CNC(=O)[C@H]([C@@H](C)O)NC(=O)[C@H](C(C)C)NC(=O)[C@H](CCCCN)NC(=O)[C@H](CCCCN)NC(=O)[C@@H]3CSSC[C@@H](C(=O)N[C@@H](Cc4ccc(O)cc4)C(=O)O)N[C@@H](CCCNC(=N)N)C(=O)[C@H](CSSC[C@H](NC(=O)[C@H](CCC(=O)O)NC(=O)[C@H](CO)NC(=O)[C@H](CO)NC(=O)[C@H](C)NC(=O)[C@H](Cc4ccccc4)NC1=O)C(=O)N[C@@H](Cc1c[nH]c4ccccc14)C(=O)N[C@@H]([C@@H](C)O)C(=O)N[C@@H](C)C(=O)N3)N[C@@H](CCC(N)=O)C(=O)NC(=O)[C@H](CC(N)=O)NC(=O)[C@H](CC(N)=O)NC(=O)[C@H](CCC(N)=O)NC2=O)C(C)C as the compound, how does the Ratio (KCNMA1/KCNMB4 [1]) read?
**A.** Its Ratio is 0.33.

**Q.** And the Kd [2]?
**A.** Its Kd is 511 µM.

**Q.** What about the Kd [3] of the same compound?
**A.** The Kd was 975 µM.

**Q.** What about the Ratio (Homo sapiens [4]) of the same compound?
**A.** The Ratio was 0.6.

**Q.** What about the Ratio (Homo sapiens [5]) of the same compound?
**A.** Its Ratio is 0.75.

**Q.** And the inhibition [6]?
**A.** The inhibition was “Active”.

**Q.** And the inhibition [7]?
**A.** Its inhibition is “Active”.

**Q.** And the inhibition [8]?
**A.** Its inhibition is “Active”.

**Q.** And the inhibition [9]?
**A.** The inhibition was “Active”.

**Q.** And the Time (Rattus norvegicus [10])?
**A.** The Time was 378.5 s.

**Q.** What about the Time (Rattus norvegicus [11]) of the same compound?
**A.** Its Time is 198 s.

**Q.** What about the Activity (Rattus norvegicus [12]) of the same compound?
**A.** The Activity was “Active”.

**Q.** And the Activity (Rattus norvegicus [13])?
**A.** Its Activity is “Active”.

**Q.** What about the Activity (Rattus norvegicus [14]) of the same compound?
**A.** The Activity was “Active”.

**Q.** And the Activity (Rattus norvegicus [15])?
**A.** The Activity was “Active”.

**Q.** What about the Activity (Rattus norvegicus [16]) of the same compound?
**A.** The Activity was “Active”.

**Q.** What about the inhibition (Rattus norvegicus [17]) of the same compound?
**A.** The inhibition was “Active”.

**Q.** And the inhibition (Rattus norvegicus [18])?
**A.** Its inhibition is “Active”.

**Q.** What about the inhibition (Rattus norvegicus [19]) of the same compound?
**A.** Its inhibition is “Active”.

**Q.** What about the Activity (Rattus norvegicus [20]) of the same compound?
**A.** Its Activity is “Active”.

**Q.** What about the Activity (Rattus norvegicus [21]) of the same compound?
**A.** The Activity was “Active”.

**Q.** And the IC50 (KCNMA1/KCNMB4 [22])?
**A.** Its IC50 is 0.602 µM.

**Q.** What about the Activity [23] of the same compound?
**A.** The Activity was “Active”.

**Q.** What about the Selectivity ratio (Homo sapiens [24]) of the same compound?
**A.** The Selectivity ratio was 2.

**Q.** What about the inhibition (Rattus norvegicus [25]) of the same compound?
**A.** Its inhibition is “Active”.

**Q.** What about the inhibition (Rattus norvegicus [26]) of the same compound?
**A.** Its inhibition is “Active”.
